PubChem BioAssay (NCI)
Several values for one entry are separate records, joined by “and”; a condition that tells them apart may be missing. Equal values may be shown once.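 Grown in 96-well plates, cells were treated for 48 hours with each compound at five concentrations. Insufficient inhibition: endpoint recorded as highest concentration tested. Here, GI50 denotes the concentration required for 50% inhibition of growth. TGI marks complete inhibition of growth.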

Tested on: MDA-MB-468 breast
Experiment: NCI-60 cell line screen, 48 h

Row | SMILES | GI50 | TGI
1 | CC(C)c1cc(C(=O)N2Cc3ccc(CN4CCN(C)CC4)cc3C2)c(O)cc1O | 40.4 nM and 58.8 nM | 3720 nM and 378 nM
2 | Cn1cc(-c2nc3c(F)cc4[nH]ncc4c3c3c2CCCC3)c(C(F)(F)F)n1 | 6440 nM | 33100 nM
3 | FC(F)(F)c1ccc(-c2cnc(Cl)nc2NC2CCCCCC2)cc1 | 55800 nM | > 100000 nM
4 | COc1ccc(Nc2nccc(Nc3ccc4[nH]ncc4c3)n2)cc1 | 1700 nM | 4550 nM
5 | CCCC(c1nnnn1C1CCCCC1)N1CCN(C(=O)c2ccco2)CC1 (stereo unspecified) | > 100000 nM | > 100000 nM
6 | COc1ccc2nc(NNC(=O)c3cnccn3)c3cccn3c2c1 | 287 nM | 1960 nM
7 | Cc1cc2c([nH]1)CSc1cc(S(=O)(=O)c3ccccc3)c(=O)[nH]c1-2 | 4530 nM | > 26100 nM
8 | CC(=O)c1nc2ccccc2n1CCN1CCN(C)CC1 | 1910 nM | > 22300 nM
9 | COc1ccc(/C=C/c2nnc(/C=C/c3ccc(OC)c(OC)c3)o2)cc1OC | 2880 nM | 27500 nM
10 | C=C1C(=O)O[C@H]2[C@H]1CC/C(COC(=O)CCCCCCC(=O)OC/C1=C/CC[C@@]3(C)O[C@H]3[C@H]3OC(=O)C(=C)[C@@H]3CC1)=C\CC[C@@]1(C)O[C@@H]21 | 2160 nM | 5440 nM
11 | COCC(=O)Oc1cc(-c2ccc(C)cc2C)c(OC(=O)COC)c(-c2ccc(C)cc2C)c1 | 2790 nM | 14600 nM
12 | COc1ccc(C2CC(c3cc(Cl)c(C)cc3O)=NN2c2ccc(S(N)(=O)=O)cc2)cc1OC (stereo unspecified) | 2580 nM | 9510 nM
13 | CCCCCCCCc1cc[n+](CC(=O)c2ccc(Br)cc2)cc1 | 1230 nM | 2690 nM
14 | Clc1ccc(CCC(Cn2ccnc2)Sc2c(Cl)cccc2Cl)cc1 (stereo unspecified) | 2130 nM | 7490 nM
15 | N#Cc1c(-c2ccccc2)cc(-c2ccccc2)n(CC(=O)NO)c1=O | 3480 nM | 14500 nM
16 | Cn1ncc2c(Sc3ccc(Cl)cc3)ncnc21 | 20700 nM | > 100000 nM
17 | C=C(C)C(=O)Oc1ccc(N=Nc2ccc(C)cc2)ccc1=O | 2800 nM | 11500 nM
18 | Cc1cc(-c2ncc(-c3cccnc3)cc2/C=C/c2ccccc2)cnc1-c1cccnc1 | > 20500 nM | > 100000 nM
19 | O=C1Nc2ccccc2/C1=C/C(=N/c1nnc(-c2ccccc2)s1)c1ccccc1 | 2710 nM | 8100 nM
20 | COc1cc(-c2n[nH]nc2-c2ccc3c(c2)OCCO3)cc(OC)c1OC | 14.7 nM | 30500 nM
21 | CCCCNCC(O)c1cc2c(Cl)cc(Cl)cc2c2cc(C(F)(F)F)ccc12 (stereo unspecified) | 1590 nM | 3030 nM
22 | O=C(NCCCCNC(=O)OCc1ccc2c(Cl)cc(Cl)c(O)c2n1)OCc1ccc2c(Cl)cc(Cl)c(O)c2n1 | 532 nM | > 100000 nM

Row | SMILES | GI50 | TGI
23 | O=C(CCl)Nc1ccc2c(c1)C(=O)c1ccccc1C2=O | 1760 nM | 4080 nM
24 | CCN1CCC(Oc2c(C#N)ncc3[nH]c4ncccc4c23)CC1 | 16000 nM | 33300 nM
25 | NC(N)=Nc1ccc(Oc2cccc(NC(N)=Nc3ccc(Cl)c(C(F)(F)F)c3)c2)cn1 | 1380 nM | 3130 nM
26 | NS(=O)(=O)N(c1cc(C(F)(F)F)cc(C(F)(F)F)c1)C1CCN(Cc2ccc(F)cc2)CC1 | 1860 nM | 4760 nM
27 | O=C(CNc1nc(-c2cccc([N+](=O)[O-])c2)cs1)Nc1cccc([N+](=O)[O-])c1 | 1950 nM | 4920 nM
28 | CCN(Cc1ccncc1)c1ccc(CO)c(Cl)c1 | 35.4 nM | 161 nM
29 | COc1cc(C(=O)/C=C/c2ccc(OCCCCCC[P+](c3ccccc3)(c3ccccc3)c3ccccc3)cc2)cc(OC)c1OC | 242 nM | 705 nM
30 | COc1cc(-c2ccc3ncnc(NCc4ccccc4)c3c2)cnc1OC | 1710 nM | 4960 nM
31 | COc1ccc(/C=C(\C#N)c2ccc(OC)cc2)cc1 | 1610 nM | 35000 nM
32 | CC(C)(C)c1ccc(C(=O)Nc2sc3c(c2C#N)CCC(=O)C3)cc1 | 1330 nM | 5280 nM
33 | Nc1cc2c([nH]c[n+]2CC#CCCl)c(SCC#CCCl)n1 | 734 nM | 2400 nM
34 | COC1=CC(c2ccc[nH]2)=N/C1=C\c1[nH]c(C)c(C(=O)CCCCC(=O)NCc2ccccc2)c1C | 2600 nM | 7850 nM
35 | O=S1CCN(Cc2ccc(-c3ccc4ncnc(Nc5ccc(OCc6ccccc6)c(Cl)c5)c4c3)o2)CC1 | 44.9 nM | 376 nM
36 | O=C1/C(=C/c2ccc(Cl)cc2)COc2ccc(O)cc21 | 2060 nM | 4550 nM
37 | O=S1CCN(Cc2ccc(-c3ccc4ncnc(Nc5ccc(OCc6cccc(F)c6)c(Cl)c5)c4c3)o2)CC1 | 5.68 nM | 46.6 nM
38 | Cc1ccc(C(=O)Nc2ccc(CNCCN3CCNCC3)c(C(F)(F)F)c2)cc1C#Cc1cnc2cccnn12 | 1650 nM | 3300 nM
39 | Cc1cc(C)c(-c2cc(O)c(-c3c(C)cc(C)cc3C)cc2O)c(C)c1 | 1960 nM | 8470 nM
40 | NCCOc1ncccc1/C=C1\c2ccccc2-c2ccc(F)cc21 | 1330 nM | 2840 nM
41 | CCCCCCCCc1ccc(OCCOCC[N+](C)(C)CC)cc1 (tested in a mixture with another compound) | 430 nM | 2320 nM
42 | c1ccc(-c2c(-c3ccccc3)[n+](Cc3ccc4ccccc4c3)c(-c3cccc4ccccc34)n2Cc2ccc3ccccc3c2)cc1 | 47.3 nM | 281 nM
43 | COc1cc(/C=N/Nc2ncnc3[nH]ncc23)ccc1O | 9900 nM | > 25000 nM
